In ChEMBL document CHEMBL3885861, “Open TG-GATES”:

Species: Rattus norvegicus
Test: Open TG-GATES - Regimen: Single
Type: toxicity, organism-based, Sprague-Dawley
Parameters: regimen Single, gender Male, age 6 weeks
Conditions: in vivo, po, route gavage; for AST / BUN / CRE / Ca / Cl / DBIL / GLC / IP / K / LDH / Na / PL / RALB / TBIL / TC / TG / TP / gamma-GTP / A/G / ALP / ALT: tissue Plasma; for APTT / Bas / Eos / Fbg / Hb / Ht / Lym / MCH / MCHC / MCV / Mono / Neu / PT / Plat / RBC / Ret / WBC: tissue Blood; for KIDNEY_L / KIDNEY_R / KIDNEY_TOTAL: tissue Kidney; for LIVER: tissue Liver
[1] = 100 mg/kg, 24 h, dose level High
[2] = 100 mg/kg, 24 h, dose level Low
[3] = 300 mg/kg, 3 h, dose level Middle
[4] = 300 mg/kg, 6 h, dose level Middle

O=C1CN(/N=C/c2ccc([N+](=O)[O-])o2)C(=O)N1 [NITROFURANTOIN]
AST (100 mg/kg, 9 h, dose level Low): 66 IU/L
BUN (100 mg/kg, 9 h, dose level Low): 14.8 mg/dL
CRE (100 mg/kg, 9 h, dose level Low): 0.4 mg/dL
Ca (100 mg/kg, 9 h, dose level Low): 11.2 mg/dL
Cl (100 mg/kg, 9 h, dose level Low): 105 meq/L
DBIL (100 mg/kg, 9 h, dose level Low): 0.01 mg/dL
GLC (100 mg/kg, 9 h, dose level Low): 187.2 mg/dL
IP (100 mg/kg, 9 h, dose level Low): 7.8 mg/dL
K (100 mg/kg, 9 h, dose level Low): 4.8 meq/L
LDH (100 mg/kg, 9 h, dose level Low): 62.8 IU/L
Na (100 mg/kg, 9 h, dose level Low): 138.2 meq/L
PL (100 mg/kg, 9 h, dose level Low): 137.8 mg/dL
RALB (100 mg/kg, 9 h, dose level Low): 3.8 g/dL
TBIL (100 mg/kg, 9 h, dose level Low): 0.03 mg/dL
TC (100 mg/kg, 9 h, dose level Low): 77.8 mg/dL
TG (100 mg/kg, 9 h, dose level Low): 91.2 mg/dL
TP (100 mg/kg, 9 h, dose level Low): 5.6 g/dL
gamma-GTP (100 mg/kg, 9 h, dose level Low): 1 IU/L
TERMINAL_BW [1]: 237.1 g
TERMINAL_BW [2]: 213.4 g
APTT [1]: 18.4 s
Bas [1]: 0%
Eos [1]: 1%
Fbg [1]: 214.8 mg/dL
Hb [1]: 13.5 g/dL
Ht [1]: 38.6%
Lym [1]: 79.6%
MCH [1]: 22.1 pg
MCHC [1]: 35.2%
MCV [1]: 62.9 fL
Mono [1]: 2.6%
Neu [1]: 15.2%
PT [1]: 12.3 s
Plat [1]: 116.3 x10_4/uL
RBC [1]: 614.4 x10_4/ul
Ret [1]: 6.9%
WBC [1]: 90.9 x10_2/uL
APTT [2]: 16.1 s
Eos [2]: 0.8%
Fbg [2]: 227 mg/dL
Hb [2]: 13.1 g/dL
Ht [2]: 40%
Lym [2]: 74.8%
MCH [2]: 20.8 pg
MCHC [2]: 32.7%
MCV [2]: 63.7 fL
Mono [2]: 10.2%
Neu [2]: 14.2%
PT [2]: 12 s
Plat [2]: 129.7 x10_4/uL
RBC [2]: 628.4 x10_4/ul
Ret [2]: 5.8%
WBC [2]: 76.3 x10_2/uL
KIDNEY_L [1]: 1.1 g
KIDNEY_R [1]: 1.1 g
KIDNEY_TOTAL [1]: 2.1 g
KIDNEY_L [2]: 1 g
KIDNEY_R [2]: 1 g
LIVER [1]: 12.4 g
LIVER [2]: 10.4 g
A/G [1]: 1.6
ALP [1]: 970.4 IU/L
ALT [1]: 39.2 IU/L
AST [1]: 63.4 IU/L
BUN [1]: 15.8 mg/dL
CRE [1]: 0.4 mg/dL
Ca [1]: 10.8 mg/dL
Cl [1]: 102.4 meq/L
DBIL [1]: 0.1 mg/dL
GLC [1]: 219.8 mg/dL
IP [1]: 7.3 mg/dL
K [1]: 4.3 meq/L
LDH [1]: 196.4 IU/L
Na [1]: 139.6 meq/L
PL [1]: 159.2 mg/dL
RALB [1]: 3.3 g/dL
TBIL [1]: 0.2 mg/dL
TC [1]: 79.2 mg/dL
TG [1]: 112.4 mg/dL
TP [1]: 5.4 g/dL
gamma-GTP [1]: 0.6 IU/L
A/G [2]: 2.2
ALP [2]: 1379.2 IU/L
ALT [2]: 32.6 IU/L
AST [2]: 62.6 IU/L
BUN [2]: 15.4 mg/dL
Ca [2]: 11.1 mg/dL
Cl [2]: 105.4 meq/L
DBIL [2]: 0.01 mg/dL
GLC [2]: 194.2 mg/dL
IP [2]: 9.1 mg/dL
K [2]: 4.7 meq/L
LDH [2]: 73.4 IU/L
Na [2]: 141 meq/L
PL [2]: 150.8 mg/dL
RALB [2]: 3.8 g/dL
TBIL [2]: 0.028 mg/dL
TC [2]: 85.8 mg/dL
TG [2]: 118.6 mg/dL
TP [2]: 5.6 g/dL
gamma-GTP [2]: 0 IU/L
TERMINAL_BW [3]: 206.1 g
APTT [3]: 16.4 s
Bas [3]: 0%
Eos [3]: 1%
Fbg [3]: 227.6 mg/dL
Hb [3]: 13.2 g/dL
Ht [3]: 40.2%
Lym [3]: 72.2%
MCH [3]: 21.2 pg
MCHC [3]: 32.9%
MCV [3]: 64.5 fL
Mono [3]: 5%
Neu [3]: 21.8%
PT [3]: 11.9 s
Plat [3]: 123.8 x10_4/uL
RBC [3]: 623.2 x10_4/ul
Ret [3]: 7.6%
WBC [3]: 84.5 x10_2/uL
KIDNEY_L [3]: 0.9 g
KIDNEY_R [3]: 0.9 g
KIDNEY_TOTAL [3]: 1.8 g
LIVER [3]: 8.5 g
A/G [3]: 2.2
ALP [3]: 1192.4 IU/L
ALT [3]: 38 IU/L
AST [3]: 65 IU/L
BUN [3]: 12.4 mg/dL
CRE [3]: 0.4 mg/dL
Ca [3]: 11.5 mg/dL
Cl [3]: 103 meq/L
DBIL [3]: 0.004 mg/dL
GLC [3]: 185.2 mg/dL
IP [3]: 10.1 mg/dL
K [3]: 4.2 meq/L
LDH [3]: 108.2 IU/L
Na [3]: 138.6 meq/L
PL [3]: 131.6 mg/dL
RALB [3]: 4 g/dL
TBIL [3]: 0.03 mg/dL
TC [3]: 86.4 mg/dL
TG [3]: 37.2 mg/dL
TP [3]: 5.8 g/dL
gamma-GTP [3]: 1 IU/L
TERMINAL_BW [4]: 204.8 g
APTT [4]: 16.7 s
Bas [4]: 0%
Eos [4]: 1.4%
